Experiments:
[1] = cited from earlier work
[2] = system: orthotopic NGP tumor; assay: Quantitative contrast-enhanced ultrasound (qCEUS) imaging of tumor perfusion volume and reperfusion rate; type: in vivo, nude athymic mice
Source text: Orthotopic NGP Tumor Model and Implantation. NGP cells were MYC-N amplified, and thus function as an appropriate model for poor prognosis NB. They reproduce many features of clinical NB, such as histology, frequency, and location of metastatic lesions when renally implanted, as was done in nude athymic mice (Charles River, Wilmington, Mass.) to generate tumor models for this study. Mice were firstly anesthetized with inhalable isoflurane. After being positioned in a sterile environment, the entire right side of each mouse was cleaned with ethanol and painted with Betadine. A 3-5 mm diagonal incision was made with a scalpel blade toward the ribcage atop the kidney. The underlying fascia was cut with scissors to expose the right kidney. […] Mice were monitored daily to confirm complete recovery, and tumors were allowed to grow for 4-5 weeks (1-2-g weight) before ultrasound experiments were initiated. […]
3D Volume and 2D Perfusion Imaging. […] Data were collected and subsequently analyzed using custom LabVIEW software, where tumor boundaries were manually segmented. […] As described in Wei K, et al., Quantification of Myocardial Blood Flow With Ultrasound-Induced Destruction of Microbubbles Administered as a Constant Venous Infusion, Circulation, 1998; 97: 473-83, MB perfusion conforms to the equation y=A (1−e^βt), where A is the relative blood volume (RBV) and β is the rate of reperfusion. […]

[3] = system: iNOS expression in adjacent glomeruli; assay: iNOS immunohistochemistry in adjacent kidney glomeruli after sonopermeation transfection; type: in vivo, nude athymic mice; conditions: p>0.05
Source text: Quantitative Ex Vivo Imaging. For iNOS expression colocalization studies, sections were imaged on a Marianas Confocal (Zeiss) using a 40X oil objective, capturing 14 steps of 0.33 μm on the z-axis, with a resolution of 0.33 μm per pixel. At least five images of each tumor of were taken, with four tumors per group. To avoid bias, the endothelial marker Isolectin-B4 was used to determine image capture and focus and iNOS staining was captured at equal exposure times for all tissues. The images were then analyzed in ImageJ (NIH, USA), selecting the lectin-positive area of the picture taken to create the area to be quantified. This area was then used to quantify the mean intensity of the iNOS staining within the tumor endothelium. The mean iNOS intensity within each tumor endothelium z-stack was then averaged to obtain the mean iNOS intensity of each tumor blood vessel analyzed. Averages were then obtained for each tumor. Because tumor cells were injected directly into the kidney and often coopt glomeruli and tubules (PMID: 24066611), NOS expression was quantified in the adjacent kidney in a separate analysis, following the same method as tumor iNOS quantification. Quantification of pimonidazole and Isolectin was performed using the average intensities from the respective stains comparing the iNOS treated and Sham groups using FIJI (NIH). […]

[4] = system: orthotopic NGP tumor; assay: Immunohistochemical analysis of tumor vascularity and hypoxia (Isolectin-B4, aSMA, pimonidazole) 72 h after transfection; type: in vivo, nude athymic mice; design: unit not given here
Description: Tumoral Hypoxia Measurements. 60 mg/kg pimonidazole-HCl (Hypoxyprobe, Massachusetts) was injected intraperitoneally 30 min before sacrifice, and tissues were harvested and processed as described above.
Immunohistochemistry. Excised NGP tumors were embedded in Tissue-Tek® optimum cutting temperature (O.C.T.) compound (Electron Microscopy Services), then stored at −20 ° C. until cryosectioned (Leica CM1860). 15 μm thick cryosections were fixed with acetone and permeabilized with Tween 20. […]
Quantitative Ex Vivo Imaging. […] The images were then analyzed in ImageJ (NIH, USA), selecting the lectin-positive area of the picture taken to create the area to be quantified. This area was then used to quantify the mean intensity of the iNOS staining within the tumor endothelium. The mean iNOS intensity within each tumor endothelium z-stack was then averaged to obtain the mean iNOS intensity of each tumor blood vessel analyzed. […] Because tumor cells were injected directly into the kidney and often coopt glomeruli and tubules (PMID: 24066611), NOS expression was quantified in the adjacent kidney in a separate analysis, following the same method as tumor iNOS quantification. Quantification of pimonidazole and Isolectin was performed using the average intensities from the respective stains comparing the iNOS treated and Sham groups using FIJI (NIH). […]

[5] = system: iNOS expression in tumor endothelium of NGP tumors; assay: iNOS immunohistochemistry in tumor endothelium (lectin-positive area) 72 h after sonopermeation transfection; type: in vivo, nude athymic mice; conditions: 72 h after transfection
Source text: Orthotopic NGP Tumor Model and Implantation. NGP cells were MYC-N amplified, and thus function as an appropriate model for poor prognosis NB. They reproduce many features of clinical NB, such as histology, frequency, and location of metastatic lesions when renally implanted, as was done in nude athymic mice (Charles River, Wilmington, Mass.) to generate tumor models for this study. Mice were firstly anesthetized with inhalable isoflurane. After being positioned in a sterile environment, the entire right side of each mouse was cleaned with ethanol and painted with Betadine. A 3-5 mm diagonal incision was made with a scalpel blade toward the ribcage atop the kidney. The underlying fascia was cut with scissors to expose the right kidney. A 27-gauge needle (of length 1.3 cm, BD Biosciences) fitted to a syringe containing 20 μL of cell suspension (1×10^6 NGP cells in Phosphate Buffered Saline, Leibniz Institute DSMZ-GmbH, Braunschweig, Germany) was inserted into the kidney and its contents injected slowly. The kidney was then returned to the abdominal cavity. […] Mice were monitored daily to confirm complete recovery, and tumors were allowed to grow for 4-5 weeks (1-2-g weight) before ultrasound experiments were initiated. […]
Quantitative Ex Vivo Imaging. […] The images were then analyzed in ImageJ (NIH, USA), selecting the lectin-positive area of the picture taken to create the area to be quantified. […]

[6] = system: orthotopic NGP tumor; assay: Animal survival study (days for tumors to increase by 50% above starting volume, up to 14 days); type: in vivo, nude athymic mice; conditions: plasmid transfection followed by L-DOX with sonopermeation; study endpoint 14 days
Description: Animal Survival Studies. Survival in vivo experiments were performed as detailed above. Briefly, mature tumors were primed with gene therapy (either mKate or iNOS), transfected by sonopermeation with 1×10^9 cationic polydispersed MBs having median diameter ˜2 μm. 72 h following gene therapy treatment, sonopermeation was performed using net-neutral lipid MBs to deliver liposomal doxorubicin as described above. For this experiment, due to the volume of bubbles needed, size-isolated microbubbles (SIMBs) were obtained from Advanced Microbubbles Inc to perform imaging and sonopermeation. Tumors were measured every other day until they reached the endpoint criteria up to 14 days using calipers, and re-imaged with a bolus of 1×10^7 SIMBs on Day 7 as well as re-dosed with L-DOX in conjunction with sonopermeation. Normalized tumor growth over the two-week observation period was obtained by dividing the volume on any given day by initial tumor volume. Kaplan-Meier curves were generated to plot the number of days it took for tumors to increase by 50% above their starting volume up to 14 days. Survival curves were plotted, and statistical analyses were conducted in Graphpad (Prism 6). Statistical significance between groups represents Mantel-Cox test, with p<0.05 interpreted as significant.

[7] = system: iNOS; assay: ELISA of protein extracts from transfected NGP cells (iNOS expression); type: cell-based, H. sapiens; conditions: NGP cell protein extracts, n=3

Compound | half-life in vivo ([1]; in vivo) [s] | half-life in whole blood ([1]; whole blood) [s] | change in RBV (normalized to tumor volume, vascularity) from baseline ([2]; 3 days post-transfection) [%] | rate of MB reperfusion (RR) normalized to TV ([2]; day 3 after transfection) [%] | iNOS expression in adjacent glomeruli [3] | distance between aSMA pericytes and endothelium [4] | iNOS in tumor endothelial cells compared with untreated tumors [5] | iNOS mean intensity within lectin-positive area ([5]; n=4 per group) | median survival time (time to 50% tumor growth) [6] [days] | iNOS protein by ELISA [7] [units]
[N]=O [NO, Nitric oxide] | < 0.002 | 0.0018 |  |  |  |  |  |  |  | 
Sham |  |  | 68±7 | 77±8 | remains unchanged | 5.8±1.1 | no change in iNOS | 8,814±2,952 | 9 | 0.04

Source: patent publication US20230414786A1, “PERFUSION-GUIDED GENE THERAPY FOR IMPROVING CANCER TREATMENT” (priority 2022, published 2023)
